In patent US9289409B2, “Sulindac formulations in a biodegradable material” (Warsaw Orthopedic, Inc., priority 2008, dated 2016):

How the values were obtained:
[1] = tested on: Rat Chronic Constriction Injury Model; test: Hargreaves test, thermal hyperalgesia, rat chronic constriction injury (Bennett) model; type: in vivo, Wistar rat; conditions: sulindac intraperitoneally 0.4 mg/kg/day; days 7-56; FIG. 3
Source text: (§1) The inventors evaluated the efficacy of a 5 Month Sulindac/Polymer Drug Depot in the Rat Chronic Constriction Injury Model. The animal model was the Bennett Model (Wistar rat). The purpose: To determine whether a 5 month polymer sulindac-eluting depot can improve pain associated behavioral responses in a rat model of neuropathic pain.
(§2) Experimental Design: Four loose chromic gut ligatures, 1 mm apart, were tied around the common sciatic nerve at mid-thigh. Each animal received treatment of test or control article-according to the dosing described in Table 4.
(§3) To date, the inventors have conducted the present study for a period of 57 days and have employed the following two tests: (1) the Hargreaves test on days 7, 14, 21, 28, 35, 42, 49, and 56; and (2) the von Frey test on days 8, 15, 22, 29, 36, 43, 50, and 57. The results of theses tests are summarized in FIGS. 3-6 and show the efficacy of sulindac of the recited time periods.

[2] = tested on: Rat Chronic Constriction Injury Model; test: von Frey test, mechanical allodynia, rat chronic constriction injury (Bennett) model; type: in vivo, Wistar rat; conditions: sulindac intraperitoneally 0.4 mg/kg/day; days 8-57; FIG. 4
Source text: as §1, §2, §3

## CC1=C(CC(=O)O)c2cc(F)ccc2/C1=C\c1ccc([S+](C)[O-])cc1 (centres unmarked) [sulindac]
[1]
  pain behavioral response (percentage of baseline), thermal hyperalgesia, compared to unloaded polymer depot: consistently reduced the behavioral response
[2]
  pain behavioral response (percentage of baseline), mechanical allodynia, compared to unloaded polymer depots: reduced the behavioral response
